# Where “and” joins values, the source holds several entries; their conditions need not be identical. Identical values can stand only once. Peptide text beside a SMILES is read from it.
# T1: canine PepT1 (cPepT1) (Canis lupus familiaris, UniProt Q8WMX5)
# T1 construct: endogenous in cells; host or cells: MDCK (Madin-Darby Canine Kidney) cells, whole-cell [3H]-GlySar uptake
# T1 sequence (Q8WMX5 1-708): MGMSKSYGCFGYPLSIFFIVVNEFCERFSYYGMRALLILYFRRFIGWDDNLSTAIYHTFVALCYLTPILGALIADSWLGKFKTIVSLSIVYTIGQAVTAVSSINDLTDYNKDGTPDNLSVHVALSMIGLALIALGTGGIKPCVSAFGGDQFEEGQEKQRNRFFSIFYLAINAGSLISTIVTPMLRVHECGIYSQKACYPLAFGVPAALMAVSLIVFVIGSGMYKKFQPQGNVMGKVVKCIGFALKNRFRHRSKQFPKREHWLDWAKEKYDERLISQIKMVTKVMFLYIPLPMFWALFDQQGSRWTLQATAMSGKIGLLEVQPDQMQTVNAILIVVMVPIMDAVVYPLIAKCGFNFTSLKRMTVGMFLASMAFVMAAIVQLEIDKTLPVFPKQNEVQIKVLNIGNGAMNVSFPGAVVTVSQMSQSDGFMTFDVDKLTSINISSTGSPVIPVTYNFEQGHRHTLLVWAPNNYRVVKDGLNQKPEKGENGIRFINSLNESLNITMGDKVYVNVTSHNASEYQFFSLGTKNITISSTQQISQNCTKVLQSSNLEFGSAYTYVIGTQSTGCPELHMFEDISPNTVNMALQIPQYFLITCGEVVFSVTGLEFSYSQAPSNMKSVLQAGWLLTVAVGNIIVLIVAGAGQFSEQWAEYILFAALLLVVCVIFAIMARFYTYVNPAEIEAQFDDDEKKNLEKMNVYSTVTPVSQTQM
# What was measured:
# [1] = molecular target: T1, canine PepT1 (cPepT1); test: Inhibition of H+-dependent 100 μM GlySar uptake by MDCK cells cultured in LHM; type: cell-based; conditions: for % inhibition of H+-dependent GlySar uptake: 1 mM extracellular substrate, 100 μM GlySar, pH 6.0, 30 min
# Method: Characteristic hallmarks of low affinity H^+/peptide cotransport activity, classically defined using membrane vesicles of several species, and more recently by functional expression studies using human, rat, and rabbit PepT1 cDNA, is the recognition of some, but not all, β-lactam antibiotics. […] To determine whether MDCK cPepT1 activity shared these functional features, the uptake of 100 μM GlySar in the absence and presence of pH 7.5 and pH 6.0 buffer, and, in pH 6.0 buffers, the presence of 1 mM additional GlySar (self-inhibitor control), 3 mM Penicillin-G, 30 μM cefadroxil, or 3 mM cefadroxil was compared (FIG. 13).
# Other hallmarks of PepT1 function are the decreased ability of Gly-containing peptides to inhibit GlySar, in proportion to their length, and sensitivity to inhibition by carnosine (β-Ala-His).
# Accordingly, the following general regimen was used to perform a series of experiments that evaluated the relative abilities of candidate di-(primarily) and tri-peptides to inhibit GlySar uptake by endogenously expressed cPepT1 in MDCK cells:
# 1. Sixty thousand cells/well were plated into collagen-coated 24-well trays and cultured at 37° C. in an atmosphere of 95% air/5% CO2 in DMEM/10% FCS that contained antibiotics for 1 day.
# 2. The media was removed and cells were cultured in LHM/10% FCS/antibiotics for 1 day.
# 3. The media was removed and cells cultured in LHM/10% FCS (no antibiotics) for 20 h.
# 4. The media was removed and cells cultured for 30 min in air at 37° C. in depletion medium (25 mM Hepes/Tris (pH 7.5), 140 mM NaCl, 5.4 mM KCl, 1.8 mM CaCl2, 0.8 mM MgSO4, and 5 mM glucose, to normalize intracellular nutrient pools.
# (§1) 5. Transport was initiated by replacing depletion medium with uptake medium (depletion medium adjusted to pH 6.0 or kept at pH 7.4) that contained 100 μM GlySar (at a specific activity of 5 μCi/mL, with [^3H]-GlySar supplying 2.88% of total GlySar substrate) and (or) 1 mM of inhibiting peptide.
# In total, 23 inhibitory peptides and 2 drug compounds were screened using this protocol.
# [2] = molecular target: T1, canine PepT1 (cPepT1); test: Competitor substrate inhibition of [3H]-GlySar uptake by confluent MDCK cells (Example 1); type: cell-based; conditions: for inhibition of H+-dependent uptake of GlySar: 10 mM competitor; for Glysylsarcosine uptake: extracellular pH 6.0, 10 mM competitor, 2.88 [3H]-glycylsarcosine, 30 min; for % inhibition of pH 6.0 uptake: pH 6.0, 10 mM competitor
# Method: (§2) Potential expression of PepT1 transport activity (H^+-dependent, dipeptide inhibitable, low-affinity dipeptide transport) by confluent MDCK cells was evaluated using whole-cell transport techniques and glycylsarcosine (GlySar) as a model dipeptide substrate. Cells were seeded at 60,000 cells/cm^2 into 24-well trays that had been coated with rat tail collagen or poly-L-lysine and cultured ([…]:5% CO2 at 37° C.) for 3 d in media consisting of Dulbecco's Modified Eagle Medium/10% fetal calf serum/1% antimicrobial antibacterial medium. Absorption (pmols/mg protein) of [^3H]-glycyl-L-sarcosine (GlySar, 6 mCi/mL, Moravek Biochemicals, Brea, Calif.) was determined using the 24-well cluster tray method and representative scintillation counting. Before transport, cells were incubated at 37° C. for 30 min in 25 mM Hepes/Tris (pH 7.5), 140 mM NaCl, 5.4 mM KCl, 1.8 mM CaCl2, 0.8 mM MgSO4, and 5 mM glucose (uptake buffer) to normalize intracellular amino acid and peptide pools. Transport was initiated by the addition of 0.25 mL of uptake buffer that contained 2.88 μm GlySar. After 30 min of uptake at 37° C., transport was terminated by rapid washing of cells with 4×2 mL 4° C. uptake buffer. Cellular protein was precipitated with 10% trichloroacetic acid and the supernatant recovered and counted to determine radioactivity (^3H) content. Cellular protein was then solubilized in 0.2 N NaOH and 0.2% SDS and quantified by the Lowry procedure, using bovine serum albumin as a standard. The amount of H^+-dependent GlySar absorbed was calculated as the difference between uptake in pH 6.0 and pH 7.5 uptake buffers. The amount of competitor substrate-inhibitable GlySar uptake was calculated as the quotient of GlySar uptake in the absence and presence of 10 mM competitor substrate (dipeptide or amino acid) multiplied by 100%.
# [3] = molecular target: T1, canine PepT1 (cPepT1); test: Inhibition of H+-dependent 100 μM GlySar uptake by MDCK cells cultured in LHM; type: cell-based; conditions: 100 μM extracellular substrate
# [4] = test system: MDCK cells; test: Inhibition of H+-independent GlySar uptake by MDCK cells; type: cell-based, canine; conditions: 1 mM peptide, 100 μM GlySar
# Method: as §1
# [5] = substrate: CN(CC(=O)O)C(=O)CN; test: Characterization of GlySar uptake by MDCK cells (Km, pH gradient, time course); type: cell-based, canine; conditions: 37.0 °C
# Method: as §2, with “Transport was initiated by the addition of 0.25 mL of uptake buffer that contained 2.88 μm GlySar. After 30 min of uptake at 37° C., transport was terminated by rapid washing of cells with 4×2 mL 4° C. uptake buffer.” left out
# To preliminarily characterize the kinetic parameters of peptide transport by MDCK cells, the uptake of GlySar in media that contained pH 6.0 and 0.00064, 0.0025, 0.010, 0.04, 0.160, 0.640, 2.56, or 10.2 mM of GlySar was measured (FIG. 6). […]
# To confirm that H^+-dependent GlySar uptake was saturable, and therefore mediated, the uptake of GlySar from pH 6.0 and 7.4 uptake buffers containing 0.025, 0.1, 0.4, 1.6, 6.4, or 25.6 mM GlySar was evaluated (FIG. 12). […]
Molecule,% inhibition of H+-dependent GlySar uptake [1],Glysylsarcosine uptake ([2]; collagen-coated trays),Glysylsarcosine uptake ([2]; poly-L-lysine-coated trays),% inhibition of H+-dependent GlySar uptake [3],inhibition of H+-independent GlySar uptake [4],further results
NCC(=O)O [Gly],5.0%,–,–,–,–,–
CC(C)C[C@H](N)C(=O)N[C@@H](Cc1c[nH]c2ccccc12)C(=O)O [LeuTrp],113%,7.68 ± 1.37 pmol 30 min^−1 mg^−1 protein,5.50 ± 0.58 pmol 30 min^−1 mg^−1 protein,58%,46%,inhibition of H+-dependent uptake of GlySar ([2]; cells grown on collagen): 88%; inhibition of H+-dependent uptake of GlySar ([2]; cells grown on poly-lysine): 87%; % inhibition of pH 6.0 uptake ([2]; collagen-coated trays): 11.7%; % inhibition of pH 6.0 uptake ([2]; poly-L-lysine-coated trays): 13.0%
CC(C)C[C@H](N)C(=O)O [Leucine],neither Leu nor Trp significantly influenced,63.0 ± 4.00 pmol 30 min^−1 mg^−1 protein,41.93 ± 2.70 pmol 30 min^−1 mg^−1 protein,–,–,–
CC1(C)S[C@@H]2[C@H](NC(=O)Cc3ccccc3)C(=O)N2[C@H]1C(=O)O [Penicillin-G],0%,–,–,–,–,"inhibition of H+-dependent GlySar uptake ([1]; 3 mM Penicillin-G, 100 μM GlySar (FIG. 13)): not inhibited"
"N[C@@H](Cc1c[nH]c2ccccc12)C(=O)O [Trp, tryptophan]",neither Leu nor Trp significantly influenced,–,–,–,–,–
CC(C)C[C@H](NC(=O)[C@@H](N)Cc1c[nH]c2ccccc12)C(=O)O [TrpLeu] (H-Trp-Leu-OH; N-terminus and C-terminus assumed),117% and 116%,5.21 ± 0.39 pmol 30 min^−1 mg^−1 protein,3.44 ± 0.27 pmol 30 min^−1 mg^−1 protein,92% and 94%,36%,inhibition of H+-dependent uptake of GlySar ([2]; cells grown on collagen): 92%; inhibition of H+-dependent uptake of GlySar ([2]; cells grown on poly-lysine): 92%; % inhibition of pH 6.0 uptake ([2]; collagen-coated trays): 8.0%; % inhibition of pH 6.0 uptake ([2]; poly-L-lysine-coated trays): 8.1%
N[C@@H](Cc1c[nH]c2ccccc12)C(=O)N[C@@H](Cc1c[nH]c2ccccc12)C(=O)O [TrpTrp] (H-Trp-Trp-OH; N-terminus and C-terminus assumed),–,–,–,62%,about 22%,–
MetGlyMetMet (MGMM; OTHER INFORMATION: tetrapeptide),50%,–,–,–,–,–
[Gly]4 (GGGG) [positive control (model) substrate],19%,–,–,–,–,–
"canine PepT1 (cPepT1) (Canis lupus familiaris) (protein, endogenous in cells; host or cells: MDCK (Madin-Darby Canine Kidney) cells, whole-cell [3H]-GlySar uptake) MGMSKSYGCFGYPLSIFFIVVNEFCERFSYYGMRALLILYFRRFIGWDDNLSTAIYHTFVALCYLTPILGALIADSWLGKFKTIVSLSIVYTIGQAVTAVSSINDLTDYNKDGTPDNLSVHVALSMIGLALIALGTGGIKPCVSAFGGDQFEEGQEKQRNRFFSIFYLAINAGSLISTIVTPMLRVHECGIYSQKACYPLAFGVPAALMAVSLIVFVIGSGMYKKFQPQGNVMGKVVKCIGFALKNRFRHRSKQFPKREHWLDWAKEKYDERLISQIKMVTKVMFLYIPLPMFWALFDQQGSRWTLQATAMSGKIGLLEVQPDQMQTVNAILIVVMVPIMDAVVYPLIAKCGFNFTSLKRMTVGMFLASMAFVMAAIVQLEIDKTLPVFPKQNEVQIKVLNIGNGAMNVSFPGAVVTVSQMSQSDGFMTFDVDKLTSINISSTGSPVIPVTYNFEQGHRHTLLVWAPNNYRVVKDGLNQKPEKGENGIRFINSLNESLNITMGDKVYVNVTSHNASEYQFFSLGTKNITISSTQQISQNCTKVLQSSNLEFGSAYTYVIGTQSTGCPELHMFEDISPNTVNMALQIPQYFLITCGEVVFSVTGLEFSYSQAPSNMKSVLQAGWLLTVAVGNIIVLIVAGAGQFSEQWAEYILFAALLLVVCVIFAIMARFYTYVNPAEIEAQFDDDEKKNLEKMNVYSTVTPVSQTQM",–,–,–,–,–,"Km ([5]; other: MDCK cells seeded at 60K/well grown in LHM (FIG. 12)): 1100 µM and 1000 µM; Km ([5]; other: MDCK cells, only pH 6.0 uptake buffer, pH 6.0): 1100 µM; Km ([5]; other: confluent MDCK cells, pH 6.0 media, graphical evaluation (FIG. 6), pH 6.0): 4000 µM"
